Read-outs that look alike come from different tables or passages of the source.
Experiments:
[1] = Liver microsomal stability, human
Protocol: Compounds were incubated with samples of liver microsomes from mice, rats, and humans and NADPH for 5, 10, 20, 30, or 60 min at 37°C. A cold acetonitrile solution containing tolbutamide was used to terminate the reaction. Testosterone and dextromethorphan were used as positive controls. LC-MS/MS was employed to determine the retention of compounds. The retention time, chromatogram acquisition, and chromatogram integration of compounds and positive control substances were analyzed using Analyst (AB Sciex, Framingham, MA, United States).

[2] = Pharmacokinetics study in rats; assay type: in vivo, Sprague–Dawley rats
Protocol: Compound 50B was dissolved in physiologic (0.9%) saline. Male and female rats were fasted overnight before dosing to avoid the possible effects of food. Compound 50B was administered via intragastric (5 mg/kg) and intravenous (2 mg/kg) routes to female and male rats. Approximately 200 μL of whole blood was collected into heparin-coated tubes at 0.083, 0.25, 0.5, 1, 2, 3, 4, 6, 8, 12, and 24 h after dosing. Plasma was collected immediately by centrifugation (8,000 g, 5 min, room temperature). Blood was placed in a heparinized Eppendorf™ tube. Plasma was centrifuged, and the concentration of compounds in the sample was determined by LC-MS/MS after pre-treatment. Drug-concentration data were processed in a […] using WinNonlin™ 6.3 (Pharsight, Mountain View, CA, United States).

[3] = biological target: T1, human 5-HT1A (Homo sapiens, UniProt P08908); assay: Calcium (FLIPR) assay, agonist activity at human 5-HT1A; assay type: cell-based
T1 construct: expressed in transfected cells; host or cells: Gα15-CHO-Clone cells
T1 sequence (P08908 1-422): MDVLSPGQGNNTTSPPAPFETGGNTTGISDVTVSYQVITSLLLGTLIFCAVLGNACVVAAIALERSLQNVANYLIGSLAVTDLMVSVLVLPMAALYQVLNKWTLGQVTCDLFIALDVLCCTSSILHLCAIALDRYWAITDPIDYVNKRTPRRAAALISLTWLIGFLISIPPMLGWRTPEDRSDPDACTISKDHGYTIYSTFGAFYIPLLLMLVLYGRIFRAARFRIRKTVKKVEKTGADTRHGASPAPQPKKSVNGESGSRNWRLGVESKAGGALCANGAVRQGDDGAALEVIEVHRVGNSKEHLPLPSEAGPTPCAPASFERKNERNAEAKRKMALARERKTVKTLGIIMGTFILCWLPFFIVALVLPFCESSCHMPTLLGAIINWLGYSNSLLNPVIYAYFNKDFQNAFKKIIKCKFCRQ
Protocol: With respect to 5-HT1A, recombinant Gα15-CHO-Clone cells expressing human 5-HT1A were used in this test. Cells were cultured with MEM supplemented with 10% FBS, penicillin (100 U/ml), streptomycin (100 μg/ml), and hygromycin B (600 μg/ml) and were seeded in 384-well microplates. Cells were stimulated with different concentrations of compounds for 2 h at 37°C, and the agonistic effect was determined using the FLIPR Calcium Assay Kit. Serotonin was used as the MAX control. Percentage activity was calculated using the following equation: Activity %=mean RLUtest sample−mean RLUvehicle control/mean RLUMAX control−mean RLUvehicle control×100%.

[4] = biological target: T2, human 5-HT2A (Homo sapiens, UniProt P28223); assay: Calcium (FLIPR) assay, antagonist activity at human 5-HT2A; assay type: cell-based
T2 construct: expressed in transfected cells; host or cells: Flp-In-CHO cell line
T2 sequence (P28223 whole entry): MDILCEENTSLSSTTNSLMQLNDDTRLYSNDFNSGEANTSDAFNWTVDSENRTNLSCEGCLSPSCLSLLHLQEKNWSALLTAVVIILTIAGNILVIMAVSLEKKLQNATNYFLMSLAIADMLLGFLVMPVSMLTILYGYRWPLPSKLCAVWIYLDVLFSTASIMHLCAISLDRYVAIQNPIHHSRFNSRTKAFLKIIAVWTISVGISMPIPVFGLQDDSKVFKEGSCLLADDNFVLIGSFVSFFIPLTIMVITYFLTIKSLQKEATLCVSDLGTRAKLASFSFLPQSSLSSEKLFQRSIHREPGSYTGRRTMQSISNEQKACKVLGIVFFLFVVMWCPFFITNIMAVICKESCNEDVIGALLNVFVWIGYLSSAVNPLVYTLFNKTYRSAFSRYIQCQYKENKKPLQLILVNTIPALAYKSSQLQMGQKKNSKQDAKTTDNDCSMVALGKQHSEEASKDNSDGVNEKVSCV
Protocol: With regard to 5-HT2A, the agonistic or inhibitory activity of 5-HT2A of compounds was determined using the Flp-In™-CHO cell line expressing human 5-HT2A. Cells were cultured with Ham’s F-12K (Kaighn’s) medium supplemented with 10% FBS, penicillin (100 U/ml), streptomycin (100 μg/ml), and hygromycin B (600 μg/ml) at 37°C in an atmosphere of 95% air and 5% CO2. Cells were stimulated with different concentrations of compounds for 2 h at 37°C after seeding in 384-well microplates. For the determination of agonistic activity, serotonin was used as the MAX control. In the determination of inhibitory activity, ketanserin was used as the MAX control.

[5] = test system: MK801-induced schizophrenia-like behavior; assay: MK801-induced schizophrenia-like behavior (open field, distance traveled); assay type: in vivo, C57BI/6J mice
Protocol: Ninety-nine male C57BI/6J mice were divided randomly into 11 groups. Mice were placed in a room 1 h before testing. They were administered (p.o.) vehicle (0.1 ml/10 g), 50A (0.3, 1, 3, and 10 mg/kg; 0.1 ml/10 g), or 50B (0.3, 1, 3, and 10 mg/kg; 0.1 ml/10 g). […] Then, mice were administered (i.p.) MK801 (0.8 mg/kg dissolved in physiologic saline; 0.1 ml/10 g). After 30 min, the distance that mice traveled was measured.
Forty-six male C57BI/6J mice were divided randomly into four groups. The CN group contained four mice. […] The administration method described previously was employed.

[6] = biological target: T3, human dopamine D2L receptors (Homo sapiens, UniProt P14416); assay: cAMP assay, inhibition at human dopamine D2L receptors; assay type: cell-based
T3 construct: expressed in transfected cells; host or cells: Flp-In-CHO cells
T3 sequence (P14416 whole entry): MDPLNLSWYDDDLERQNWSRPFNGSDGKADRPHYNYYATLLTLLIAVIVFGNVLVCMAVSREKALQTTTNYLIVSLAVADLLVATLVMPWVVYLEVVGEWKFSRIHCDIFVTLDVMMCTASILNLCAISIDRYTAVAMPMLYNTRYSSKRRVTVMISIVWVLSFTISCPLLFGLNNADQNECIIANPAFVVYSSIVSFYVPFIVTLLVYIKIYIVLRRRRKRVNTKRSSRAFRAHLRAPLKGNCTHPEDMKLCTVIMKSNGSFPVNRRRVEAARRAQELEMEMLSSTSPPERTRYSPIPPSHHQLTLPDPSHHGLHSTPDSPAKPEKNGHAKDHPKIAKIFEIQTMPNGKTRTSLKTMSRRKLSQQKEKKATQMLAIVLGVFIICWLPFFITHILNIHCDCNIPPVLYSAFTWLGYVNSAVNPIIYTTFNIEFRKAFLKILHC
Protocol: With regard to D2L and D2S, recombinant Flp-In™-CHO cells expressing human dopamine D2L receptors or D2S receptors were cultured with Ham’s F-12K (Kaighn’s) medium supplemented with 10% FBS, penicillin (100 U/ml), streptomycin (100 μg/ml), and hygromycin B (600 μg/ml) at 37°C in an atmosphere of 5% CO2. The methods of cell inoculation and compound treatment were the same as those for TAAR1, and haloperidol was used as the MAX control. Percentage inhibition was calculated using the following equation: Inhibition %=mean RLUtest sample−mean RLUvehicle control/mean RLUMAX control−mean RLUvehicle control×100%.

[7] = Sprague-Dawley, rat, plasma, iv, male rats, 2 mg/kg
[8] = Sprague-Dawley, rat, plasma, po, male rats, 5 mg/kg, i.g.
[9] = male, Sprague-Dawley, rat, plasma, po, 5 mg/kg, i.g.

## c1csc([C@@H]2CNCCO2)c1 [Compound 50B]
[1]; Human liver microsomes, 60 min
  Remaining (T = 60 min): 77.2%
[1]; human, liver microsomes
  CLint scaled: 7.74 mL/min/kg
  half-life: 161 min
[2]; [7]
  Cmax: 6.8 µM
  MRT last: 1.46 ± 0.231 h
[2]; [8]
  Cmax: 4.38 µM
  MRT last: 3.03 ± 0.625 h
[2]; Sprague-Dawley, rat, plasma, po, male rats, 5 mg/kg, i.g., read-out: CL/F (converted)
  CL/F: 26 mL/min/kg
[2]; Sprague-Dawley, rat, plasma, po, male rats, 5 mg/kg, i.g., read-out: Vz/F
  Vd/F: 2.86 ± 0.104 L/kg
[2]; male rats, 2 mg/kg, i.v.
  CL/F: 22.2 ± 3.52 mL/min/kg
  Vz/F: 2.48 ± 0.485 L/kg
[2]; male rats, 5 mg/kg, i.g.
  AUC(0-t): 18,929 ± 1774 h* nM
  T1/2: 1.28 ± 0.140 h
[2]; male, Sprague-Dawley, rat, plasma, iv, 2 mg/kg
  half-life: 78.6 ± 18.8 min
[2]; male, Sprague-Dawley, rat, plasma, iv, 2 mg/kg, i.v., read-out: AUC0-t
  AUC(0-t): 8.98 µM·h
[2]; male, Sprague-Dawley, rat, plasma, oral, 5 mg/kg, i.g. vs 2 mg/kg i.v., read-out: F (oral bioavailability)
  bioavailability: ~84.3%
[2]; [9]
  Tmax: ~50 min
  half-life: ~76.8 min
[2]; male, Sprague-Dawley, rat, plasma, po, 5 mg/kg, i.g., read-out: AUC0-t
  AUC(0-t): ~18.9 µM·h
[3]
  EC50: 99.8 µM
[3]; serotonin as MAX control, up to 100 μM, read-out: 5-HT1A agonism Emax
  Emax: 50.3%
[4]
  IC50: > 100 µM
[4]; ketanserin as MAX control, up to 100 μM
  Emax: 31.5%
[5]; mice, 10 mg/kg p.o., MK801 0.8 mg/kg i.p.
  MK801-induced increase in distance traveled: significantly reduced
[5]; mice, single oral dose 0.3, 1, 3 and 10 mg/kg, MK801 0.8 mg/kg i.p.
  Inhibition of MK801-induced schizophrenia-like behavior (effective doses): markedly at 1, 3, and 10 mg/kg
[5]; single oral dose 0.3, 1, 3 and 10 mg/kg
  Distance moved by mice in the presence or absence of MK801: significantly reduced the distance moved by mice
[6]
  IC50: > 100 µM
[6]; haloperidol as MAX control, up to 100 μM, read-out: dopamine D2L antagonist Emax
  Emax: 5.49%
